“Also recorded” adds a separate entry of the source.

What all share (format): cell-based, human
The test system of series [1] is GNAQ c.548G>A, p.(R183Q) allele. Nature of the series: Western blot knock-down of HA-tagged Gαq in TIME cells expressing wild-type or p.R183Q. The settings on record: 50 nM siRNA, 24 h after transfection, TIME cells stably expressing wild-type or p.R183Q HA-tagged Gαq. On the procedure:
(§1) FIG. 5—Designing and testing siRNA specific for GNAQ c.548G>A, p.(R183Q) A. Schematic representation of the 6 siRNAs designed to target specifically GNAQ c.548G>A allele. B. TIME cells stably expressing either wild-type or p.R183Q HA-tagged Gαq were transfected by 50 nM siRNAs targeting GNAQ c.548G>A, p.(R183Q) allele and analysed by western-blot 24 h after transfection. […] C. (average of three experiments, * p<0.05). D. Schematic representation of the 6 siRNAs designed to target specifically GNA11 c.547C>T p.(R183C). E. TIME cells stably expressing either wild-type or p.R183C HA-tagged Gα11 were transfected by 25 nM siRNAs targeting GNA11 c.547C>T, p.(R183C) allele and analysed by western-blot 24 h after transfection. […] (average of three experiments, * p<0.05).
(§2) hTERT-immortalised microvascular endothelial cells (TIME-ATCC CRL-4025TM, “TIME” cells) and their transgenic derivatives were maintained in EBMTM-2 Endothelial Cell Growth Basal Medium-2 (Lonza CC-3156), supplemented with EGMTM-2 BulletKit (Lonza CC-3162) and 3% fetal bovine serum (Gibco).
(§3) TIME cells were transduced with lentiviral vectors to induce stable expression of HA-tagged forms of GNAQ WT, GNAQ p.(R183Q), GNA11 WT, GNA11 p.(R183C) cDNAs (FIG. 4), and we confirmed presence of the mutations in the genomic DNA by Sanger sequencing (FIG. 4B). […]

Series [2] deals with GNAQR183Q mutant allele. Nature of the series: Expression of GNAQR183Q mutant allele in UPMM1, mutant-specific primers. Conditions: UPMM1 cells. As for the experimental part: (§4) FIG. 10—GNAQ and CRAC inhibition in uveal melanoma cells. […] UPMM1 cells were non-transfected or transfected with non-target control siRNA (siSCRA) or with 2 distinct GNAQR183Q-mutant specific siRNAs (siGNAQmut3 and siGNAQmut6) and expression of the mutant allele was measured by using GNAQR183Q-mutant specific primers previously validated (forward primer: […] (SEQ ID NO:25); reverse primer: […] (SEQ ID NO:26). B. Transfection with siRNAs silencing GNAQ mutant allele reduced GPCR ligand-induced calcium intra-cellular accumulation. Cells loaded with Fluo-8 calcium marker were stimulated by the GPCR ligand leukotriene D4 (LTD4) and fluorescence was recorded over the time. C. […] Cells loaded with Fluo-8 calcium probe were treated by CM4620 1, 3 or 10 μM, stimulated by the GPCR ligand leukotriene D4 (LTD4) and fluorescence was recorded over the time.

The test system of series [3] is GNA11 c.547C>T, p.(R183C) allele. Nature of the series: Western blot knock-down of HA-tagged Gα11 in TIME cells expressing wild-type or p.R183C. Conditions: 25 nM siRNA, 24 h after transfection, TIME cells stably expressing wild-type or p.R183C HA-tagged Gα11. As for the experimental part:
as §1, §2, §3
(In general: In western blotting, separated proteins are transferred to a membrane and probed.)

Series [4] deals with UPMM1 UM cell line. Nature of the series: Fluo-8 assay, LTD4-induced intracellular calcium in UPMM1. Conditions: UPMM1, Fluo-8, 1, 3 or 10 μM, leukotriene D4 stimulation. On the procedure:
as §4
For orientation: Calcium flux is commonly read through the fluorescence of an indicator in the cells.

The subject of series [5] is TIME GNAQR183Q cells. Description: In vitro angiogenesis (endothelial tube formation) assay, GNAQ variant cells. Conditions: 1 μM, in presence of thrombin 0.3 U/ml, vs vehicle. The text has this:
(§5) FIG. 8—In vitro angiogenesis is disrupted by mutant GNAQ and rescued by CRAC channel inhibition. (A) Representative images captured with EVOS Floid Imaging System following Calcein AM staining during in vitro endothelial cell tube formation of TIME cells stably expressing either GNAQ WT or GNAQ R183Q. […] Statistical significance calculated using two-tailed unpaired t-test on three independent experiments (**** p<0.0001). […] Results shown as mean of a technical triplicate for each of 4 independent experiments. Statistical analysis performed by two-tailed paired t-test on four independent experiments (n.s=not statistically significant, * p=0.0125). […] Results shown as mean +/−SD of three independent experiments, and statistical analysis performed by two-tailed paired t-test (n.s=not statistically significant, * p=0.04).
(§6) TIME endothelial cell models were used to assess angiogenesis using a standard in vitro angiogenesis assay. […] Furthermore, thrombin GPCR activation disrupted angiogenesis in GNAQR183Q more than in GNAQWT (FIG. 8C).

Series [6] concerns TIME GNAQWT cells. Description: In vitro angiogenesis (endothelial tube formation) assay, GNAQ WT cells. Conditions: 1 μM, in presence of thrombin 0.3 U/ml, vs vehicle.
Description: as §5, §6

Series [7] relates to TIME GNAQWT cells. Description: Fluo-8 AM assay, thrombin-induced intracellular calcium, GNAQ WT cells. The settings on record: 1 μM for 20 minutes, thrombin 1 U/ml. As for the experimental part: (§7) FIG. 3—CRAC channel inhibition and variant-specific siRNAs rescue aberrant calcium signalling in variant cells. A-B. TIME-GNAQ^WT (A) or −GNAQ^R183Q (B) were loaded with intracellular calcium probe Fluo-8 and treated for 20 minutes with vehicle or 1 μM […]. Following treatment, cells were stimulated with thrombin 1 U/ml and fluorescence recorded for 300 seconds. The graphs represent an avarage of three independent experiments performed in technical quadruplicates. C. Means +/−SD deviation of areas under the curve calculated from three experiments summarised in […]. Statistical comparisons were performed by two-tailed paired t test (n.s=not statistically significant, * p=0.0284). […] IP1 concentration was measured 48 hours after transfection and shown as mean +/−SD of three independent experiments. […] TIME-GNAQ p.(R183Q); NFAT-Luc were transfected with non-target siRNA (siSCRA) or two siRNAs for specific silencing of the variant GNAQ allele (siGNAQmut 1 and 3) and luciferase reporter activity was measured 48 hours after transfection in complete medium or after four hours of starvation, shown as mean +/−SD of % change of cells transfected with mock in three independent experiments. […]

Series [8] deals with TIME GNAQR183Q cells. Description: Fluo-8 AM assay, thrombin-induced intracellular calcium, GNAQ variant cells. The settings on record: 1 μM for 20 minutes, thrombin 1 U/ml. As for the experimental part: as §7

Consider “UGCUUAGAGUUCAAGUCCC[dT][dT] (antisense GGGACUUGAACUCUAAGCA; dTdT overhangs, chemistry not fully specified) [siGNAQmut #1, siRNA to GNAQ c.548G>A p.(R183Q)]”, for which, in series [1], the “specific knock-down of variant Gαq protein over wild-type (western blot)” value is recorded as “specific knock-down of variant protein over wild-type counterparts”.

“AGAGUUCAAGUCCCCACCA[dT][dT] (antisense UGGUGGGGACUUGAACUCU; dTdT overhangs, chemistry not fully specified) [siGNAQmut #6, siRNA to GNAQ c.548G>A p.(R183Q)]”: the “expression of the GNAQR183Q mutant allele” value in series [2] is “reduced expression of the mutant allele”.

As for “CUGCGGGUCUGCGUGCCCA[dT][dT] (antisense UGGGCACGCAGACCCGCAG; dTdT overhangs, chemistry not fully specified) [siGNA11mut #4, siRNA to GNA11 c.547C>T p.(R183C)]”, the “specific knock-down of variant Gα11 protein over wild-type (western blot)” value in series [3] is listed as “specific knock-down of variant protein over wild-type counterparts”.

“CUUAGAGUUCAAGUCCCCA[dT][dT] (antisense GGGGACUUGAACUCUAAGC; dTdT overhangs, chemistry not fully specified) [siGNAQmut #3, siRNA to GNAQ c.548G>A p.(R183Q)]”: the “expression of the GNAQR183Q mutant allele” value in series [2] is reported as “reduced expression of the mutant allele”. Moreover, the “specific knock-down of variant Gαq protein over wild-type (western blot)” value in series [1] is “specific knock-down of variant protein over wild-type counterparts”.

Consider `Cc1cccc(F)c1C(=O)Nc1cnc(-c2cc3c(cc2Cl)OC(F)(F)O3)cn1` [CM4620], for which the “GPCR ligand (LTD4)-induced accumulation of intracellular calcium” value in series [4] was “reduced the GPCR ligand-induced accumulation of intracellular calcium”. In addition, the “tubule formation (total length of the network), GNAQR183Q” value in series [5] was “improved tubule formation”. Also, the “tubule formation (total length of the network), GNAQWT” value in series [6] was “no statistically significant difference; also recorded: not GNAQWT”. Further, the “thrombin-induced calcium signalling, GNAQ WT cells” value in series [7] is reported as “limited effects”. The “thrombin-induced calcium signalling, GNAQ-variant cells” value in series [8] was “inhibits the variant cell response; also recorded: markedly rescuing the prolonged calcium intracellular peak”.

The values above are taken from patent publication US20250230435A1, “METHODS OF TREATMENT OF GNAQ AND GNA11 DRIVEN DISEASE” (THE FRANCIS CRICK INSTITUTE LIMITED, priority 2022, published 2025).
